pIC50: −log10 of the molar value. Read-outs that look alike come from different tables or passages of the source.
Tests used:
CYP2C8 = target: T1, CYP2C8 (Homo sapiens, UniProt P10632); assay: CYP inhibition in human liver microsomes, CYP2C8; format: in vitro ADME; settings: probe paclitaxel and amodiaquine, substrate paclitaxel and amodiaquine, read-out: CYP2C8 Inh %
T1 construct: incubated with human liver microsomes; tissue Eurofins ITEMG232; host or cells: human liver microsomes
T1 sequence (P10632 1-490): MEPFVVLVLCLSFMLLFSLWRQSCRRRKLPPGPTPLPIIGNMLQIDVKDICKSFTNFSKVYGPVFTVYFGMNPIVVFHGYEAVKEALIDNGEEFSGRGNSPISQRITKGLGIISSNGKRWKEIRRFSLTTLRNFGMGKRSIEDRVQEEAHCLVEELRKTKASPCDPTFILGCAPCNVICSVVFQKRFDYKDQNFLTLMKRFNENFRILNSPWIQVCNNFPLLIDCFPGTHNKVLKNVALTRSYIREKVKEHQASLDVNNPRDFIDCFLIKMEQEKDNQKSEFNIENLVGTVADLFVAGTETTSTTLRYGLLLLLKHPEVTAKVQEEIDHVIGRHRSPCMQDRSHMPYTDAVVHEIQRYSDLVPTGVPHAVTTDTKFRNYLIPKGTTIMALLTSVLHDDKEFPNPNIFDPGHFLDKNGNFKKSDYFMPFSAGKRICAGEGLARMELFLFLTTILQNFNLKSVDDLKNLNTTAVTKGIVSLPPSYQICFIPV
Procedure, shortened: (§1)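 For CYP2D6 inhibition, dextromethorphan was the substrate; diclofenac served for CYP2C9, while CYP2C8 activity was followed with paclitaxel and amodiaquine. Formation of each metabolite at incubation end was recorded as HPLC-MS/MS peak area.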

CYP2C9 = CYP2C9 (Homo sapiens, UniProt P11712); assay: CYP inhibition in human liver microsomes, CYP2C9; format: in vitro ADME; parameters: incubated with human liver microsomes; tissue Eurofins ITEMG232; host or cells: human liver microsomes; settings: probe diclofenac, substrate diclofenac, read-out: CYP2C9 Inh %
Sequence of CYP2C9 (P11712 whole entry): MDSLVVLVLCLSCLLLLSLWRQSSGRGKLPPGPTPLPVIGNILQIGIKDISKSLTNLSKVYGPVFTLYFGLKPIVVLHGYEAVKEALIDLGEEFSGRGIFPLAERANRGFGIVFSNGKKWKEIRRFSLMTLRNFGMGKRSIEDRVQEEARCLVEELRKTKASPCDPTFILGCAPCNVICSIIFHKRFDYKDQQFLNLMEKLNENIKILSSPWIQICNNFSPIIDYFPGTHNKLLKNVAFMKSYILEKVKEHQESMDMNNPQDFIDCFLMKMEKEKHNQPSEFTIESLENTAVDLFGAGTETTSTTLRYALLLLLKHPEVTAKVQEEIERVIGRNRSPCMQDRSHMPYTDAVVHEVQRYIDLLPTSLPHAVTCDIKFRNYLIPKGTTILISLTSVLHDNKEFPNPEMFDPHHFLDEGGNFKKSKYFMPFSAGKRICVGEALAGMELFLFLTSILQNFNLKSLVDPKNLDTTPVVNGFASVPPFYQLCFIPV
Procedure, shortened: as §1

CYP2D6 = target: T2, CYP2D6 (Homo sapiens, UniProt P10635); assay: CYP inhibition in human liver microsomes, CYP2D6; format: in vitro ADME; settings: probe dextromethorphan, substrate dextromethorphan, read-out: CYP2D6 Inh %
T2 construct: incubated with human liver microsomes; tissue Eurofins ITEMG232; host or cells: human liver microsomes
T2 sequence (P10635 whole entry): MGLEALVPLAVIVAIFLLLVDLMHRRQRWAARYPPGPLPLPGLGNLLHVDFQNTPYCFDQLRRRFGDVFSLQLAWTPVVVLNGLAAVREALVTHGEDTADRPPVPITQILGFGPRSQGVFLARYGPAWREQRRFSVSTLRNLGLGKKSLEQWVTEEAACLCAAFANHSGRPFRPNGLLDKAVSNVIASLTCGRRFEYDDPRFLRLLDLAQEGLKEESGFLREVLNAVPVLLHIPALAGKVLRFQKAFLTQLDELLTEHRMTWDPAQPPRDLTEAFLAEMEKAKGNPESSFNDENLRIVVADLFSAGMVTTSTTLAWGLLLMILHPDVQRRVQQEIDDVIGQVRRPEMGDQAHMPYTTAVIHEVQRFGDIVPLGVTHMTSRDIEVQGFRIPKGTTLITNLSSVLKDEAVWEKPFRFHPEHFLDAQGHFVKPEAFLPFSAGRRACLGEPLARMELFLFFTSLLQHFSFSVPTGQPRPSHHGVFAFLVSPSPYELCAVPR
Procedure, shortened: as §1

[1] = Metabolic stability in pooled human liver microsomes; format: in vitro ADME; settings: pooled human liver microsomes 0.5 mg/ml, 1 μM test compound, 37° C.
[2] = target: T3, human recombinant AT1 receptor (Homo sapiens, UniProt P30556); assay: Binding to AT1 receptor, radiometric scintillation assay (Eurofins); settings: ligand 125I(sar1,Ile8)-AT-II, tested at 1 and 10 μM
T3 construct: purchased Eurofins ITEM24
T3 sequence (P30556 1-359): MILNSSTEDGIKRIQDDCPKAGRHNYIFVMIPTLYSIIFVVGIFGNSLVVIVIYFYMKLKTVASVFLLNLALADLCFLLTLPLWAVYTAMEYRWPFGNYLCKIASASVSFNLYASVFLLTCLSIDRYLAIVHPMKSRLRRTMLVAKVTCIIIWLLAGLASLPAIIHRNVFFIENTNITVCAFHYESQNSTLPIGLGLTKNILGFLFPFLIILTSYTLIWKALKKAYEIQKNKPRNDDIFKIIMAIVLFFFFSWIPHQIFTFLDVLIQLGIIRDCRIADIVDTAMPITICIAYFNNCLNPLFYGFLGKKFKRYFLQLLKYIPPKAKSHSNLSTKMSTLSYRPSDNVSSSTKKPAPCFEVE
Experimental: (§2) Compounds were evaluated for binding to the human recombinant AT2 and AT1 receptor according to Eurofins protocol ITEM26 and ITEM24 using a radiometric scintillation assay.

[3] = target: T4, human recombinant AT2 receptor (Homo sapiens, UniProt P50052); assay: Binding to AT2 receptor, radiometric scintillation assay (Eurofins); settings: ligand 125I CGP 42112A, tested at 1, 10, 100 and 1000 nM
T4 construct: purchased Eurofins ITEM26
T4 sequence (P50052 1-363): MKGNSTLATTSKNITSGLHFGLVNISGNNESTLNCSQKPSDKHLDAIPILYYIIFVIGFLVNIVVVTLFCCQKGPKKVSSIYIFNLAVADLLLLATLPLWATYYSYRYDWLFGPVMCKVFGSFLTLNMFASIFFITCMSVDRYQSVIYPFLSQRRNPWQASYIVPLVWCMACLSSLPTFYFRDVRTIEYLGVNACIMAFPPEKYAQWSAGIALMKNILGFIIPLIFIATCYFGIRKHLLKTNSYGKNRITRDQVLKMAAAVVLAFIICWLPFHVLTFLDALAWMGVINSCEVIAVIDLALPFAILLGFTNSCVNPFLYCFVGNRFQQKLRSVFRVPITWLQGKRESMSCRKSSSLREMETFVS
Experimental: as §2

CYP2C19 = target: T5, CYP2C19 (Homo sapiens, UniProt P33261); assay: CYP inhibition in human liver microsomes, CYP2C19; format: in vitro ADME; settings: probe omeprazole, substrate omeprazole, read-out: CYP2C19 Inh %
T5 construct: incubated with human liver microsomes; tissue Eurofins ITEMG232; host or cells: human liver microsomes
T5 sequence (P33261 whole entry): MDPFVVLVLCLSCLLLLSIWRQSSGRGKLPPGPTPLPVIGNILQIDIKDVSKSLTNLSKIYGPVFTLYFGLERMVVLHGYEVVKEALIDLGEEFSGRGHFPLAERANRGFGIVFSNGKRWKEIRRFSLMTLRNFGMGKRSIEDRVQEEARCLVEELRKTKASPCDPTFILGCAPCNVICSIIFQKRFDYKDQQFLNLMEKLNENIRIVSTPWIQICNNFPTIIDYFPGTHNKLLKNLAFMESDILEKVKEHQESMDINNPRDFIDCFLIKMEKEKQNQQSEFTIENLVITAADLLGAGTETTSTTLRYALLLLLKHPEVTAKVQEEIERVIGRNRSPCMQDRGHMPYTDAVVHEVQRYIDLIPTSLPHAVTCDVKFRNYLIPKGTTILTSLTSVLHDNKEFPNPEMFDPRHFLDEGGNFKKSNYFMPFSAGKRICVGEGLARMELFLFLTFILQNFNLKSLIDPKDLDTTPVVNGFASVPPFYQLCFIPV
Experimental: (§3) The following substrates were used: CYP1A phenacetin, CYP2B6 bupropion, CYP2C8 paclitaxel and amodiaquine, CYP2C9 diclofenac, CYP2C19 omeprazole, CYP2D6 dextromethorphan, CYP3A midazolam and testosterone. At the end of the incubation, the formation of metabolite was monitored by HPLC-MS/MS as the peak area response.

CYP3A4&5 = assay: CYP inhibition in human liver microsomes, CYP3A4&5 (testosterone); format: in vitro ADME; settings: probe testosterone, substrate testosterone, read-out: CYP3A4&5 testosterone Inh %
Experimental: as §3

CYP3A4 = CYP3A4 (Homo sapiens, UniProt P08684); assay: CYP inhibition in human liver microsomes, CYP3A4 (midazolam); format: in vitro ADME; parameters: incubated with human liver microsomes; tissue Eurofins ITEMG232; host or cells: human liver microsomes; settings: probe midazolam, substrate midazolam, read-out: CYP3A4 midazolam Inh %
Sequence of CYP3A4 (P08684 whole entry): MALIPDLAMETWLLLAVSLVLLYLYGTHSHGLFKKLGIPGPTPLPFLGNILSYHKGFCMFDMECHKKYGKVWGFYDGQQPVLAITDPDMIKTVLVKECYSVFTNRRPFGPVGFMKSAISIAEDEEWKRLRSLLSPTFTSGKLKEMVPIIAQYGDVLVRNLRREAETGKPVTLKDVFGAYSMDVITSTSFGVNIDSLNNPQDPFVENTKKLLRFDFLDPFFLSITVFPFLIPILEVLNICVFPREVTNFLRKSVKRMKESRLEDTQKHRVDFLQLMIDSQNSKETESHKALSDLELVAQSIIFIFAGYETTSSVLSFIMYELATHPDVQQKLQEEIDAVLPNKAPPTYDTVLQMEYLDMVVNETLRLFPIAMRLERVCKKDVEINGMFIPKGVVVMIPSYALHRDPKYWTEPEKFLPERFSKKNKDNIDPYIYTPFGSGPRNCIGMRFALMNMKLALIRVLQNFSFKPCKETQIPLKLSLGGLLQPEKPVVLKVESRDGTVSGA
Experimental: as §3

[4] = with 1 mM NADPH, read-out: T1/2, + NaDPH
[5] = without NADPH, read-out: T1/2, no NaDPH

| Compound | inhibition at 10 µM (CYP2C8) [%] | inhibition at 10 µM (CYP2C9) [%] | inhibition at 10 µM (CYP2D6) [%] | half-life at 1 μM [1, 4] [h] | half-life at 1 μM [1, 5] [h] | pIC50 [2] | pIC50 [3] | inhibition at 10 µM (CYP2C19) [%] | inhibition at 10 µM (CYP3A4&5) [%] | inhibition at 10 µM (CYP3A4) [%] |
| --- | --- | --- | --- | --- | --- | --- | --- | --- | --- | --- |
| Cc1nccn1Cc1ccc(-c2cc(CC(C)C)sc2S(=O)(=O)NC(=O)NCc2ccc(F)c(F)c2)cc1F.O=C(O)C(F)(F)F [Example 34, 1-[(3,4-difluorophenyl)methyl]-3-[(3-{3-fluoro-4-[(2-methyl-1H-imidazol-1-yl)methyl]phenyl}-5-(2-methylpropyl)thiophen-2-yl)sulfonyl]urea trifluoroacetic acid] | 64 | 75 | 40 | 0.1 | > 1 | 4.68 | 8.28 | 80 | 60 | 74 |
| CCCNC(=O)NS(=O)(=O)c1sc(CC(C)C)cc1-c1ccc(Cn2ccnc2CC)c(F)c1.O=C(O)C(F)(F)F [Example 33, 1-[(3-{4-[(2-ethyl-1H-imidazol-1-yl)methyl]-3-fluorophenyl}-5-(2-methylpropyl)thiophen-2-yl)sulfonyl]-3-propylurea trifluoroacetic acid] | 69 | 34 | 18 | > 1 | > 1 | 4.72 | 8.29 | 26 | 11 | -37 |
| Cc1nccn1Cc1ccc(-c2cc(CC(C)C)sc2S(=O)(=O)NC(=O)NCC(C)C)cc1F.O=C(O)C(F)(F)F [Example 39, 1-[(3-{3-fluoro-4-[(2-methyl-1H-imidazol-1-yl)methyl]phenyl}-5-(2-methylpropyl)thiophen-2-yl)sulfonyl]-3-(2-methylpropyl)urea trifluoroacetic acid] | 51 | 44 | 10 | 1 | > 1 | 4.80 | 8.07 | 56 | 27 | 18 |
| Cc1nccn1Cc1ccc(-c2cc(CC(C)C)sc2S(=O)(=O)NC(=O)NCc2nccn2C)cc1F [Example 15, 1-(3-{3-Fluoro-4-[(2-methyl-1H-imidazol-1-yl)methyl]phenyl}-5-isobutyl-2-thienylsulfonyl)-3-[(1-methyl-1H-imidazol-2-yl)methyl]urea] | 48 | 30 | 53 | > 1 | > 1 | 3.33 | 8.31 | 73 | 12 | 38 |
| CCc1nccn1Cc1ccc(-c2cc(CC(C)C)sc2S(=O)(=O)NC(=O)NCc2ccccc2)cc1 [Example 6, 1-Benzyl-3-(3-{p-[(2-ethyl-1H-imidazol-1-yl)methyl]phenyl}-5-isobutyl-2-thienylsulfonyl)-urea] | 76.2 | 51.4 | 27.3 | 0.4 | > 1 | < 6.00 | 8.46 | 57 | 13.2 | 28.5 |
| CCCCNC(=O)NS(=O)(=O)c1sc(CC(C)C)cc1-c1ccc(Cn2ccnc2C)cc1 [Example 4, 1-Butyl-3-(5-isobutyl-3-{p-[(2-methyl-1H-imidazol-1-yl)methyl]phenyl}-2-thienylsulfonyl)-urea] | 47.2 | 31.3 | 7.7 | 0.65 | > 1 | < 5.00 | 7.98 | 37.5 | 8.2 | 17.1 |
| Cc1nccn1Cc1ccc(-c2cc(CC(C)C)sc2S(=O)(=O)NC(=O)NCC2CCC(F)(F)CC2)cc1F.O=C(O)C(F)(F)F [Example 40, 1-[(4,4-difluorocyclohexyl)methyl]-3-[(3-{3-fluoro-4-[(2-methyl-1H-imidazol-1-yl)methyl]phenyl}-5-(2-methylpropyl)thiophen-2-yl)sulfonyl]urea trifluoroacetic acid] | 64 | 70 | 47 | 0.0667 | > 1 | 4.77 | 8.11 | 80 | 63 | 85 |
| Cc1nccn1Cc1ccc(-c2cc(CC(C)C)sc2S(=O)(=O)NC(=O)NCCCC(F)(F)F)cc1 [Example 5, 3-(5-isobutyl-3-{p-[(2-Methyl-1H-imidazol-1-yl)methyl]phenyl}-2-thienylsulfonyl)-1-(4,4,4-trifluorobutyl)-urea] | 49.3 | 27.9 | 13.2 | 0.417 | > 1 | < 5.00 | 7.83 | 50.4 | 14.7 | 26.7 |
| Cc1nccn1Cc1ccc(-c2cc(CC(C)C)sc2S(=O)(=O)NC(=O)NCc2cccs2)cc1F.O=C(O)C(F)(F)F [Example 35, 1-[(3-{3-fluoro-4-[(2-methyl-1H-imidazol-1-yl)methyl]phenyl}-5-(2-methylpropyl)thiophen-2-yl)sulfonyl]-3-[(thiophen-2-yl)methyl]urea trifluoroacetic acid] | 56 | 71 | 45 | 0.75 | > 1 | 5.10 | 9.20 | 60 | 25 | 26 |

— patent publication US12435072B2, “Compounds” (Vicore Pharma AB, priority 2019, dated 2025)
